The structures appear in SMILES notation. Like-named read-outs stand apart in the source and are kept apart here.

For test [1], the system named is HCT116 cells. Kind of test: Colorectal cancer xenografts (HCT116) in NOD/SCID mice, tumor volume. In kind it is in vivo. To be noted: day 24. The procedure: When solid and palpable tumors with an average volume of 100-150 mm^3 were formed (at day 14), mice were randomly separated into four groups such that each group was treated either with negative control miRNA, miR-129 alone, 5-FU alone or miR-129 and 5-FU together. The miRNAs were complexed with siPORTamine and injected intratumorally while 5-FU (50 μg g^−1) was injected systemically via the tail vein. All injections were provided in 3-day intervals for a total of three times before the tumors were collected at day 24. […] Importantly, despite the overexpression, the expression levels of miR-129 copy number remained within the physiological range (less than 20 copies/cell based on cycle threshold value at 30, which is equal to the expression of miR-129 in normal colon mucosa). Moreover, the control tumor xenografts had no miR-129 expression (cycle threshold value at 35).
Ten-twelve week old NOD/SCID mice (Jackson Laboratories, Bar Harbor, […]., USA) were used for tumor implantation. All animal procedures were approved by the Stony Brook University Institutional Animal Care and Use Committee (IACUC). The tumor implantation and miRNA injection protocol was modified from Trang et al. (see Trang P., et al., Oncogene. (2010) 29(11):1580-7). The mice were anesthetized by isoflurane inhalation. HCT116 cells were subcutaneously injected into the lower back areas of the mice using 2.5×10^6 cells in 100 μl McCoy's 5A with 50% matrigel (BD Biosciences). The tumor size was measured using a caliper and tumor volume was calculated using the formula V=length×width^2/2. When tumor volumes reach 100-150 mm^3 at day 14 post-injection, the mice were randomly assigned into four groups. For the first two groups, 10 μM negative miRNA or miR-129 precursor (Ambion) complexed with 1.6 μl siPORTAmine (Ambion) in 50 μl McCoy's 5A was injected into the tumors every three days. For the third group, 5-FU (Sigma-Aldrich) was injected at 50 μg/g via the tail vein every three days. Finally, for the last group, both miR-129 precursor and 5-FU were injected as described above. The mice were euthanized on day 24 post-injection by CO2 inhalation, and tumors were dissected out for RNA isolation.

Test [2] has as its system HCT116 cells. Kind of test: 5-FU treatment and cytotoxicity assay (WST-1). The test is classed as cell-based. To be noted: Homo sapiens, HCT-116, 72 h, read-out: IC50 (50% growth inhibition, WST-1). The procedure: Twenty-four hours after transfection, HCT116 cells were plated in 96-well plates at 2×10^3 cells per well in triplicates in 100 μl of medium. After 24 hours, fresh medium containing 5-FU alone (ranged from 1 to 4 μM) or miR-129 precursor alone (ranged from 10 nM to 40 nM) or 5-FU and miR-129 together (at a constant ratio 1:10, with increasing concentrations of both compounds) were added, and cells were cultured for an additional 72 hours. Cell viability was measured using the WST-1 assay, and concentration-dependent curves were generated based on the cell viability. The combination index was calculated by CompuSyn software. See, Chou T C et al. (2007).
Background: Tetrazolium assays rely on reduction of a dye to a coloured formazan, in cell work by metabolically active cells.

As to `O=c1[nH]cc(F)c(=O)[nH]1` [5-FU, 5-fluoro-1H-pyrimidine-2,4-dione, reference compound], the “inhibition of tumor growth (in words)” value in test [1] (HCT116 xenograft, compared with negative miRNA or single agents) is “strong inhibitory effect”. For the same compound, the “average tumor volume, % of the control group” value in test [1] (treated days 14, 17, 20, miRNA intratumoral with siPORTamine, 5-FU 50 μg/g tail vein, control negative miRNA) is 48.4%. Further, the IC50 (as a rule, the concentration needed to halve the response being measured) in test [2] (5-FU alone) was found to be 2300 nM; in test [2] (5-FU when combined with miR-129 (fixed ratio 1:10)), 600 nM.

The record behind these values is US10697020B2, “MicroRNA-129 as a biomarker for colorectal cancer” (THE RESEARCH FOUNDATION FOR THE STATE UNIVERSITY OF NEW YORK, priority 2013, dated 2020).
